Legend:
[1] = tested on: UFH (unfractionated heparin, Calciparine) in plasma; assay: Anti-heparin power in a PT (Quick time) test with thromboplastin reagent, heparinized vs nonheparinized plasma; assay type: biochemical; details: anti-heparin agent at 5 μg/ml in thromboplastin reagent; pool of normal plasma with 0 vs 1 IU/ml UFH; delta relative clotting time
Experimental: The aim is to analyze the performance (anti-heparin power and turbidity) of anti-heparin agents incorporated into a Diagnostica Stago thromboplastin reagent.
Analysis of the anti-heparin power: This is the ability of the anti-heparin agent to make the reagent insensitive to the heparin contained in the blood sample:
The test samples are prepared from a pool of normal plasma which may or may not be overloaded with heparin (plasma heparinized with 1 IU/ml of UFH (Calciparine 25 000 IU/ml, Sanofi)).
Comment: a reagent serving as a negative control, i.e. without anti-heparin agent, is of use to verify the heparinization of the plasma.
To determine the Quick Time, the automated device (STA Diagnostica Stago—patent EP 0325874) removes 50 μl of sample plasma, which it allows to incubate at 37° C. for 240 seconds in a cupule containing a bead; it then transfers the cupule into the measuring area and adds 100 μl of thromboplastin reagent to the sample.
The clotting time was determined in the following way: At constant viscosity, the amplitude of oscillation of the bead in the cupule (oscillation maintained using an electromagnetic field) is constant. When the viscosity increases (clotting phenomenon), the amplitude of oscillation of the bead decreases.
An algorithm uses this variation in amplitude to determine the clotting time.
The anti-heparin power is calculated in the following way: determination of the delta relative time between a heparinized and nonheparinized plasma, i.e.:
[{CT(heparinized plasma)−CT(nonheparinized plasma)}/TC(nonheparinized plasma)×100]
The anti-heparin power of the compounds according to the invention is estimated to be significant when this delta time is less than 10%.

[2] = Turbidity of the thromboplastin reagent containing the anti-heparin agent (OD at 630 nm); assay type: physicochemical; details: anti-heparin agent at 5 μg/ml in thromboplastin-type reagent
Experimental: The turbidity should be as low as possible for an application in diagnosis, and more particularly in a thromboplastin test (PT).
This turbidity is determined by measuring the OD at 630 nm on a spectrophotometer (Uvikon 940, Kontron).
Comment: a reagent serving as a negative control, i.e. without anti-heparin agent, is of use to measure the influence of this anti-heparin agent on the turbidity of the reagent.

Substance	Turbidity OD 630 nm [2] [OD]	Anti-UFH power Delta time 0/1 IU/ml (in %) [1] [%]
Hyp-K4-(AHA)2-K4-AHA-K4-AHA-K2 [1415-3]	0.134	3.4
PGlu-K4-(AHA)2-K4-AHA-K4-AHA-K2 [1415-5]	0.069	4.5
Pro-K3-AHA-K4-APA-K4-APA-K2 [1403P]	0.205	7.1
Pro-K4-(AHA)2-K4-AHA-K3-AHA-K2 [compound 1411]	0.086	6.5
Pro-K4-(AHA)2-K4-AHA-K4-AHA-K2 [compound 1405]	0.323	4.2
Pro-K4-AHA-K3-APA-K4-APA-K3 [1408-2]	0.040	6.9
Pro-K4-AHA-K4-APA-K3-APA-K3 [compound 1394]	0.399	6.4
THC-K4-(AHA)2-K4-AHA-K4-AHA-K2 [1415-4]	0.148	5.9

Continued, in another order:

Turbidity OD 630 nm [2] [OD]	Substance	Anti-UFH power Delta time 0/1 IU/ml (in %) [1] [%]
0.283	Pro-K3-AHA-K4-APA-K4-APA-K2 [1403PK]	8.7
0.147	Pro-K4-AHA-K3-APA-K3-APA-K2 [compound 1404]	7.6
0.488	Pro-K4-AHA-K4-APA-K4-APA-K2 [compound 1401]	8.1
0.104	Thi-K4-(AHA)2-K4-AHA-K4-AHA-K2 [1415-2]	5.7

Reference: patent publication US6835808B2, “Anti-heparin peptides” (Diagnostica-Stago, priority 2000, dated 2004)
